Results published in PMC3871636 (PLoS ONE, 2013).
Where a name gives a salt, the structure may show the parent alone.

Legend:
[1] = target: CYP3A4 (double-labeled C377/C468-DY/ER) (Homo sapiens, UniProt P08684, form not given/S18F); test: Ligand-induced spin shift, absorbance titration; assay type: binding; conditions: purified double-labeled CYP3A4 C377/C468-DY/ER protein, pH 7.4, read-out: K D or S 50
How it was run: (§1)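 Ligand binding monitored by absorbance titration at ≤1 µM protein, 25°C with stirring, in 100 mM Na-Hepes pH 7.4 with 0.5 mM EDTA. Spectra were resolved by PCA into low-spin, high-spin and Type II-bound ferric states; high-spin fraction versus ligand concentration was fitted with offset and scaling factor.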

[2] = target: CYP3A4 (double-labeled C64/C468-ER/DY) (Homo sapiens, UniProt P08684, form not given/S18F); test: Ligand-induced spin shift, absorbance titration; assay type: binding; conditions: human, purified double-labeled CYP3A4 C64/C468-ER/DY protein, pH 7.4; read-out: K D or S 50
CYP3A4 (double-labeled C64/C468-ER/DY), sequence (P08684 13-503 S18F, form open): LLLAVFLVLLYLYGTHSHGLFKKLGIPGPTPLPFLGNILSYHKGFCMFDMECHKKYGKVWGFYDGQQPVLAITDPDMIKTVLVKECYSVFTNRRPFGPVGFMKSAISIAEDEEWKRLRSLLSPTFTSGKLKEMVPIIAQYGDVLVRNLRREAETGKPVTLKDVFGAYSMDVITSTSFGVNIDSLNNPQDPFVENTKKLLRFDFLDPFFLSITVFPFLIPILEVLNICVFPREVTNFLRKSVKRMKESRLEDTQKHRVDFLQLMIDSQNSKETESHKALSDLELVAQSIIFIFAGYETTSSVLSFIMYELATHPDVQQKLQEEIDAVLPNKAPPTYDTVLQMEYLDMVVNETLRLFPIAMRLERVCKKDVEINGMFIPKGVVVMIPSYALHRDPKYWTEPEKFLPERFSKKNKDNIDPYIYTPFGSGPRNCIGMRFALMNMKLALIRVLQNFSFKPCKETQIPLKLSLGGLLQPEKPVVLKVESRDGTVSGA
How it was run: as §1

[3] = target: double-labeled CYP3A4 C64/C121-DY/ER (Homo sapiens, UniProt P08684, A121C/C239S/C377S/C468A/C98S/S18F); test: Time-resolved LRET (phosphorescence lifetime measurements); conditions: for τ1 (phosphorescence decay time with ligand) / F1 (fraction of first exponential) / τ2 (phosphorescence decay time with ligand) / τav (average phosphorescence lifetime with ligand): Table S1, protein (C64/C121)-ER/DY; for τ1 (phosphorescence decay time with ligand): bi-exponential fit; for F1 (fraction of first exponential) / τ2 (phosphorescence decay time with ligand) / τav (average phosphorescence lifetime with ligand) / R (interprobe distance with ligand), lifetime measurements / ΔR, lifetime measurements: same ligand concentrations
double-labeled CYP3A4 C64/C121-DY/ER, sequence (P08684 with tags, fused parts or gaps S18F/C98S/A121C/C239S/C377S/C468A limits assumed): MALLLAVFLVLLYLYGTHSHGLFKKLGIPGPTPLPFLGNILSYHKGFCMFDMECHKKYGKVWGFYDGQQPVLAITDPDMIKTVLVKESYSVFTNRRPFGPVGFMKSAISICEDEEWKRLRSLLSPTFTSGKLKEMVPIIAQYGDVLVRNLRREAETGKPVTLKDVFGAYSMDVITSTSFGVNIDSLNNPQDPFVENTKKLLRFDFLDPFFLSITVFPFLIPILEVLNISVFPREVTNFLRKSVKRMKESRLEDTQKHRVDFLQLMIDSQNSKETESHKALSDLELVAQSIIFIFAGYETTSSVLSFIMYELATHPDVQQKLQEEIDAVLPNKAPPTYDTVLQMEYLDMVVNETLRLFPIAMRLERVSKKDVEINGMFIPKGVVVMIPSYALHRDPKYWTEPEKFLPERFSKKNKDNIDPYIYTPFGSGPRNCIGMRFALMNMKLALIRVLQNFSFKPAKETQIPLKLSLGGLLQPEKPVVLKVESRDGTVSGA
Method: (§2) All absorbance and fluorescence assays (including the time-resolved fluorescence measurements) were performed at a protein concentration ≤1 µM at 25°C with continuous stirring. Absorbance spectra were recorded with an S2000 rapid scanning CCD spectrometer (Ocean Optics). Ligand binding assays were done in 100 mM Na-Hepes buffer, pH 7.4, containing 0.5 mM EDTA.
Fluorescence-based ligand binding assays were done under anaerobic conditions. Anaerobiosis was achieved using an oxygen-scavenging system consisting of protecatechuate-3,4-dioxygenase (0.5 units/ml) and 5 mM protocatechuic acid. The steady state and time-resolved phosphorescence measurements were performed with the use of a Cary Eclipse fluorescence spectrophotometer (Varian/Agilent Technologies). The excitation wavelength was set to 540 nm. Spectra were taken from 650 to 860 nm with 100 µs delay.
The treatment of the time-resolved decay traces was performed using a bi-exponential approximation. The efficiency of time-resolved LRET was calculated using the equation [drawing 2] (Eq.2)
In this equation τda and τd designate the average lifetime of the excited state of the donor in the presence and absence of the acceptor, respectively. These average lifetimes are determined as τ = α1τ1+α2τ2, where τ1,2 and α1,2 stay for the lifetime and the relative amplitude of each of the two exponential terms. In our calculations of the lifetime in double-labeled C64/C468, C377/C468 and C64/C121 proteins we used the lifetimes of phosphorescence measured with the respective proteins labeled with ERIA at a label:protein ratio 2∶1 as the estimates of τd.
Distances were calculated using the equation: [drawing 3] (Eq.3) where R 0 is the Förster distance, and R is the distance between the donor and acceptor. R 0 was calculated with the use of PhotoChemCad software. In these calculations, we used the values of the orientation factor (κ^2) and the refractive index (n) of 0.667 and 1.4, respectively.

CYP3A4(C64/C121) mutant = CYP3A4(C64/C121) mutant (Homo sapiens, UniProt P08684, A121C/C239S/C377S/C468A/C98S/S18F); test: Ligand-induced spin shift, absorbance titration
CYP3A4(C64/C121) mutant, sequence (P08684 with tags, fused parts or gaps S18F/C98S/A121C/C239S/C377S/C468A limits assumed): as above
Method: as §2
(§3) Absorbance spectra obtained in titration experiments were analyzed with a principal component analysis (PCA) procedure complemented with least-square approximation of the principal vectors with a combination of the prototypical spectra of the CYP3A4 low-spin, high-spin and Type II-substrate-bound ferric CYP3A4 P450 states as described, [31].
(§4) When fitting the results of titration experiments, where the changes in the monitored signal A S (fraction of the enzyme in the high-spin state, intensity or the lifetime of the donor phosphorescence at a given substrate concentration) were assumed to be proportional to [ES], this equation was complemented with the offset A 0 and the scaling factor A max to yield the following relationship: [drawing 5] (Eq.5)

[4] = target: wild type CYP3A4 (N-terminally truncated Δ3-12, S18F) (Homo sapiens, UniProt P08684, S18F); test: Ligand-induced spin shift, absorbance titration
wild type CYP3A4 (N-terminally truncated Δ3-12, S18F), sequence (P08684 with tags, fused parts or gaps S18F): as the sequence (P08684 with tags, fused parts or gaps S18F/C98S/A121C/C239S/C377S/C468A limits assumed) above, with S88C, C111A, S229C, S367C, A458C counted along it
Method: as §2, §3, §4

[5] = target: CYP3A4 (double-labeled C64/C468-DY/ER) (Homo sapiens, UniProt P08684, form not given/S18F); test: Ligand-induced spin shift, absorbance titration; assay type: binding; conditions: human, purified double-labeled CYP3A4 C64/C468-DY/ER protein, pH 7.4; read-out: K D or S 50
CYP3A4 (double-labeled C64/C468-DY/ER), sequence (P08684 13-503 S18F, form open): as the sequence (P08684 13-503 S18F, form open) above
How it was run: as §1

CYP3A4(C377/C468) mutant = CYP3A4(C377/C468) mutant (Homo sapiens, UniProt P08684, S18F, form not given); test: Ligand-induced spin shift, absorbance titration; assay type: binding; conditions: C377/C468
CYP3A4(C377/C468) mutant, sequence (P08684 13-503 S18F, form open): as above
How it was run: as §1

CYP3A4(C64/C468) mutant = CYP3A4(C64/C468) mutant (Homo sapiens, UniProt P08684, S18F, form not given); test: Ligand-induced spin shift, absorbance titration; assay type: binding; conditions: C64/C468
CYP3A4(C64/C468) mutant, sequence (P08684 13-503 S18F, form open): as above
How it was run: as §1

[6] = target: double-labeled CYP3A4 C64/C468-DY/ER (Homo sapiens, UniProt P08684, S18F, form not given); test: Ligand-induced spin shift, absorbance titration; assay type: binding; conditions: (C64/C468)-DY/ER
double-labeled CYP3A4 C64/C468-DY/ER, sequence (P08684 13-503 S18F, form open): as above
How it was run: as §1

[7] = target: CYP3A4 (double-labeled (C64/C468)-ER/DY) (Homo sapiens, UniProt P08684, form not given/S18F); test: Steady-state LRET titration (delayed emission); assay type: binding; conditions: human, purified double-labeled CYP3A4 (C64/C468)-ER/DY protein, pH 7.4; (C64/C468)-ER/DY; LRET titration; read-out: K d, steady-state fluorescence
CYP3A4 (double-labeled (C64/C468)-ER/DY), sequence (P08684 13-503 S18F, form open): as above
How it was run: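 Protein at ≤1 µM, 25°C, stirred, in 100 mM Na-Hepes pH 7.4 with 0.5 mM EDTA, kept anaerobic with a protocatechuate-3,4-dioxygenase/protocatechuic acid scavenger. Delayed emission (100 µs delay) recorded from 650 to 860 nm at 540 nm excitation, with PCA-resolved donor/acceptor intensities giving LRET efficiency and distances (κ² 0.667, n 1.4). Titration signals fitted to a binding equation with offset and scaling terms.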

[8] = target: double-labeled CYP3A4 C64/C468-ER/DY (Homo sapiens, UniProt P08684, S18F, form not given); test: Ligand-induced spin shift, absorbance titration; assay type: binding; conditions: (C64/C468)-ER/DY
double-labeled CYP3A4 C64/C468-ER/DY, sequence (P08684 13-503 S18F, form open): as above
How it was run: as §1

[9] = 1-PB 40 µM, ANF 100 µM, BCT 2.5 µM, cholesterol 100 µM, testosterone 100 µM
[10] = Table S2, protein C64/C121-ER/DY

CYP3A4 (double-labeled C377/C468-DY/ER), sequence (P08684 13-503 S18F, form open): as above

Compound	Kd [2] [µM]	τ1 (phosphorescence decay time with ligand) [3, 9] [µs]	F1 (fraction of first exponential) [3] [%]	τ2 (phosphorescence decay time with ligand) [3] [µs]	τav (average phosphorescence lifetime with ligand) [3] [µs]	R (interprobe distance with ligand), lifetime measurements [3, 10] [Å]	ΔR, lifetime measurements [3, 10] [Å]	Kd (CYP3A4(C64/C121) mutant) [µM]	Kd [4] [µM]	Nh (Hill coefficient) (CYP3A4(C377/C468) mutant)	ΔF HS (amplitude of ligand-induced spin shift) (CYP3A4(C377/C468) mutant) [%]	Nh (Hill coefficient) (CYP3A4(C64/C468) mutant)	ΔF HS (amplitude of ligand-induced spin shift) (CYP3A4(C64/C468) mutant) [%]	also measured
CC(C)C[C@H]1C(=O)N2CCC[C@H]2[C@]2(O)O[C@](NC(=O)[C@@H]3C=C4c5cccc6[nH]c(Br)c(c56)C[C@H]4N(C)C3)(C(C)C)C(=O)N12 [Bromocriptine, Bromocriptine mesylate]	0.28 ± 0.1	75 ± 13	49 ± 5	242 ± 15	159 ± 2	36.4 ± 0.1	1.3 ± 0.1							Kd [1]: 0.93 ± 0.6 µM; increase in the interprobe distance ([3]; C64/C121-DY/ER, stated for both steady-state and lifetime experiments): 1.3 Å
O=c1cc(-c2ccccc2)oc2c1ccc1ccccc12 [ANF, α-naphthoflavone]			43 ± 7	232 ± 22	159 ± 7	36.4 ± 0.5	1.3 ± 0.5	8.6 ± 1.6	7.4 ± 1.6	1.4±0.2	24±12	1.8±0.2	39±8	Nh (Hill coefficient) (CYP3A4(C64/C121) mutant; human, pH 7.4): 1.3±0.4; ΔF HS (amplitude of ligand-induced spin shift) (CYP3A4(C64/C121) mutant; human, pH 7.4): 19±4%; Nh (Hill coefficient) ([4]; human, pH 7.4): 1.9±0.3; ΔF HS (amplitude of ligand-induced spin shift) ([4]; human, pH 7.4): 41±1%; Kd [5]: 4.2 ± 0.9 µM; Nh (Hill coefficient) [6]: 1.5±0.1; ΔF HS (amplitude of ligand-induced spin shift) [6]: 13±1%; Kd [7]: 17.3 ± 7.2 µM
OCCCCc1ccc2ccc3cccc4ccc1c2c34 [1-PB, 1-pyrenebutanol]	5.4 ± 2.1	57 ± 1	35 ± 1	199 ± 12	149 ± 9	35.4 ± 0.8	0.4 ± 0.8	16 ± 8	9.5 ± 0.9	1.2±0.2	29±9	1.2±0.1	43±5	Nh (Hill coefficient) (CYP3A4(C64/C121) mutant; C64/C121): 1.3±0.5; ΔF HS (amplitude of ligand-induced spin shift) (CYP3A4(C64/C121) mutant; C64/C121): 17±10%; Nh (Hill coefficient) ([4]; W/T): 1.6±0.4; ΔF HS (amplitude of ligand-induced spin shift) ([4]; W/T): 50±1%; Nh (Hill coefficient) [8]: 1.3±0.1; ΔF HS (amplitude of ligand-induced spin shift) [8]: 18±2%; E (LRET efficiency with ligand), lifetime measurements ([3]; Table S2, protein C64/C121-ER/DY, 1-PB 40 µM, ANF 100 µM, BCT 2.5 µM, cholesterol 100 µM, testosterone 100 µM): 46 ± 5%
